This passage reports Ki results from patent US20240425482A1, “PYRROLIDINE DERIVATIVES AS DDRS INHIBITORS” (CHIESI FARMACEUTICI S.P.A., priority 2021, published 2024).

SMILES strings stand for the structures. Read-outs that look alike come from different tables or passages of the source. Some results are limits rather than exact numbers.

In assay [1] the target is DDR1 (Homo sapiens (Human), UniProt Q08345). As to the kind of experiment: DDR1 LanthaScreen Europium Kinase Binding assay. On the procedure: (§1) DDR1 and DDR2 binding assays were performed using Life Technologies LanthaScreen™ Europium Kinase Binding assay. The compounds were incubated with 5 nM DDR1 (Carna Biosciences) or 5 nM DDR2 (Life Technologies) for 1 hour at rt in white 384-well OptiPlate (PerkinElmer), containing 20 nM or 10 nM Kinase Tracer 178 respectively and 2 nM Europium labelled anti-GST antibody (Life Technologies) in assay buffer (50 mM HEPES pH 7.5, 10 mM MgCI2, 1 mM EGTA and 0.01% BRIJ35). The ratio of fluorescence emission 665 nm/615 nm after excitation at 340 nm was obtained using the Tecan Spark 20M plate reader. IC50 values were determined in GraphPad Prism 7.0 software, using 4 parameter model: log(inhibitor) vs. response. IC50 values were converted in Ki using the Cheng-Prusoff equation (Ki=IC50/(1+[Tracer]/Kd).
(§2) Compounds C1 and C2 were tested in the same binding assay described above.
A general note: In TR-FRET formats the signal depends on donor and acceptor labels being close together.

For assay [2], the target named is DDR2 (Homo sapiens (Human), UniProt Q16832). As to the kind of experiment: DDR2 LanthaScreen Europium Kinase Binding assay. On the procedure:
as §1, §2

[3] abbreviates: binding, 5 nM DDR1, 20 nM Kinase Tracer 178, 1 hour at rt, Ki from IC50 by Cheng-Prusoff, read-out: Ki DDR1.
Where [4] appears, read: binding, 5 nM DDR2, 10 nM Kinase Tracer 178, 1 hour at rt, Ki from IC50 by Cheng-Prusoff, read-out: Ki DDR2.

Sequence of DDR2 (Q16832 22-855): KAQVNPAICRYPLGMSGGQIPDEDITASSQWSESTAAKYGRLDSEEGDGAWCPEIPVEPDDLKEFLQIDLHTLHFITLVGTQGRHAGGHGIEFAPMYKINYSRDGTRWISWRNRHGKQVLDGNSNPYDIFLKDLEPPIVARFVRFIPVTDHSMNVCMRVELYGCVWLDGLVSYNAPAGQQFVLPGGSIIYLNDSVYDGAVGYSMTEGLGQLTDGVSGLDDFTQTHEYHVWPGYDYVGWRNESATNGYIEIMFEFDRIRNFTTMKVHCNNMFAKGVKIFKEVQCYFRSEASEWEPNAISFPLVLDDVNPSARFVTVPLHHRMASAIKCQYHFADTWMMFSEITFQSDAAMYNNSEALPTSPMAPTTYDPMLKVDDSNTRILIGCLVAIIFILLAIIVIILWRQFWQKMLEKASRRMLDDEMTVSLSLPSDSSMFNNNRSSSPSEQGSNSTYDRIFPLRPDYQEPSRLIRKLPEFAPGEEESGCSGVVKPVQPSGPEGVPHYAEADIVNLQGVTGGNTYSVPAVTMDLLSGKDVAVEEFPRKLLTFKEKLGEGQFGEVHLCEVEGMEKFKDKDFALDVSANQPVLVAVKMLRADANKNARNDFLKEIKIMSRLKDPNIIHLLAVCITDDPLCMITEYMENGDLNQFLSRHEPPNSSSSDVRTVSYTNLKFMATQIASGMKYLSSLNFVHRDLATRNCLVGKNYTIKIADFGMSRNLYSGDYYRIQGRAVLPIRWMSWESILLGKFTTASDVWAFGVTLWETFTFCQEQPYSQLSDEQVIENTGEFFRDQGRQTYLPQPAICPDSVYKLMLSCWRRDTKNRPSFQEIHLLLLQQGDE
Sequence of DDR1 (Q08345 19-913): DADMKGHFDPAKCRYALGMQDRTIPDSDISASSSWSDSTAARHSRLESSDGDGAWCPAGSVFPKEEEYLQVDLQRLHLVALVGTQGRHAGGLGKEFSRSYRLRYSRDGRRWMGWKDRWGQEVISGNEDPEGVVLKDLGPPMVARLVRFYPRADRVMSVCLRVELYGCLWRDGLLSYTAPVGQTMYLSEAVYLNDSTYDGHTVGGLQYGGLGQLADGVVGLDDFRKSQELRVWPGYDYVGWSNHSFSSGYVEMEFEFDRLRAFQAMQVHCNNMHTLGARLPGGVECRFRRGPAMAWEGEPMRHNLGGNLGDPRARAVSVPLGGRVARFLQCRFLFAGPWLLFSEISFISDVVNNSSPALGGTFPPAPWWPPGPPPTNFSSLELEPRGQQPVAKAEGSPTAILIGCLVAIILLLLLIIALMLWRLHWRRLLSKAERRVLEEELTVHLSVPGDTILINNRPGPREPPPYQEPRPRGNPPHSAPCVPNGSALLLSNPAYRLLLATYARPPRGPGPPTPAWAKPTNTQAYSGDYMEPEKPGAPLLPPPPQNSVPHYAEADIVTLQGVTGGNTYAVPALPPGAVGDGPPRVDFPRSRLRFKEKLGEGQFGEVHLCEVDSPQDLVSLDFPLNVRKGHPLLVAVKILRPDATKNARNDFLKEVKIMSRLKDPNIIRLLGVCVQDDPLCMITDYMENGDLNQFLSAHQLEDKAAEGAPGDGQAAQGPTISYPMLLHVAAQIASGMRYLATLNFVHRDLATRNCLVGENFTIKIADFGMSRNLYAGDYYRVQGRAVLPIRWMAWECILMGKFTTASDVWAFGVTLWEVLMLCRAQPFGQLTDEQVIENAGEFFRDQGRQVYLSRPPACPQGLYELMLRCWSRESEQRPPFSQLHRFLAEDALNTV

Take `Cc1ccc(C(=O)Nc2cccc(C(F)(F)F)c2)cc1C1CCN(c2cncc(C(N)=O)c2)C1` (stereo not shown) [Example 17, 5-(3-(2-methyl-5-((3-(trifluoromethyl)phenyl)carbamoyl)phenyl)pyrrolidin-1-yl)nicotinamide]: the figures for the Ki in assay [1] (setting [3]) and in assay [2] (setting [4]) were under 0.01 µM and 0.01 to 0.025 µM, respectively.

For the molecule `Cc1ccc(C(=O)Nc2cccc(C(F)(F)F)c2)cc1C1CCN(c2ccnc(C(N)=O)c2)C1` (single isomer, unassigned) [Example 55, 4-(3-(2-methyl-5-((3-(trifluoromethyl)phenyl)carbamoyl)phenyl)pyrrolidin-1-yl)picolinamide], the Ki is 0.01 to 0.025 µM in assay [1] (setting [3]) and 0.025 to 0.06 µM in assay [2] (setting [4]).

On to `COCCNC(=O)c1cncc(N2CCC(c3cc(C(=O)Nc4cccc(C(F)(F)F)c4)ccc3C)C2)c1` (stereo not shown) [Example 9, N-(2-methoxyethyl)-5-(3-(2-methyl-5-((3-(trifluoromethyl)phenyl)carbamoyl)phenyl)pyrrolidin-1-yl)nicotinamide], for which the inhibition constant (Ki) in assay [1] (setting [3]) was under 0.01 µM; in assay [2] (setting [4]) it was 0.01 to 0.025 µM.

With `Cc1ccc(C(=O)Nc2cccc(C(F)(F)F)c2)cc1C1CCN(c2cncc(OCCN3CCOCC3)c2)C1` (stereo not shown) [Example 5, 4-methyl-3-(1-(5-(2-morpholinoethoxy)pyridin-3-yl)pyrrolidin-3-yl)-N-(3-(trifluoromethyl)phenyl)benzamide], the values for the Ki in assay [1] (setting [3]) and in assay [2] (setting [4]) were under 0.01 µM and 0.025 to 0.06 µM, respectively.

Take `Cc1ccc(C(=O)Nc2cccc(C(F)(F)F)c2)cc1[C@@H]1CCN(c2cncc(C(F)F)c2)C1` [Example 38, (S)-3-(1-(5-(difluoromethyl)pyridin-3-yl)pyrrolidin-3-yl)-4-methyl-N-(3-(trifluoromethyl)phenyl)benzamide]: the Ki in assay [1] (setting [3]) is under 0.01 µM; in assay [2] (setting [4]), 0.01 to 0.025 µM.

`Cc1ccc(C(=O)Nc2cccc(C(F)(F)F)c2)cc1[C@@H]1CCN(c2cncc(N3CC4(COC4)C3)c2)C1` [Example 37, (S)-3-(1-(5-(2-oxa-6-azaspiro[3.3]heptan-6-yl)pyridin-3-yl)pyrrolidin-3-yl)-4-methyl-N-(3-(trifluoromethyl)phenyl)benzamide]: the results for the Ki in assay [1] (setting [3]) and in assay [2] (setting [4]) were under 0.01 µM and 0.01 to 0.025 µM, respectively.

As to `Cc1ccc(C(=O)Nc2cccc(C(F)(F)F)c2)cc1C1CCN(c2cncc(CN3CCOCC3)c2)C1` (stereo not shown) [Example 11, 4-methyl-3-(1-(5-(morpholinomethyl)pyridin-3-yl)pyrrolidin-3-yl)-N-(3-(trifluoromethyl)phenyl)benzamide], the Ki was under 0.01 µM in assay [1] (setting [3]) and 0.01 to 0.025 µM in assay [2] (setting [4]).

For the molecule `Cc1ccc(C(=O)Nc2cccc(C(F)(F)F)c2)cc1[C@@H]1CCN(c2cncc(C(=O)N3CCOCC3)c2)C1` [Example 33, (S)-4-methyl-3-(1-(5-(morpholine-4-carbonyl)pyridin-3-yl)pyrrolidin-3-yl)-N-(3-(trifluoromethyl)phenyl)benzamide], the results for the Ki in assay [1] (setting [3]) and in assay [2] (setting [4]) were under 0.01 µM and 0.01 to 0.025 µM, respectively.

Regarding `Cc1ccc(C(=O)Nc2cccc(C(F)(F)F)c2)cc1[C@@H]1CCN(c2cncc(N3CCC(F)(F)CC3)c2)C1` [Example 31, (S)-3-(1-(5-(4,4-difluoropiperidin-1-yl)pyridin-3-yl)pyrrolidin-3-yl)-4-methyl-N-(3-(trifluoromethyl)phenyl)benzamide], the Ki in assay [1] (setting [3]) was under 0.01 µM; in assay [2] (setting [4]), over 0.06 µM.

In the case of `Cc1ccc(C(=O)Nc2cccc(C(F)(F)F)c2)cc1C1CCN(c2cncc(OCCN(C)C)c2)C1` (stereo not shown) [Example 23, 3-(1-(5-(2-(dimethylamino)ethoxy)pyridin-3-yl)pyrrolidin-3-yl)-4-methyl-N-(3-(trifluoromethyl)phenyl)benzamide], the Ki in assay [1] (setting [3]) and in assay [2] (setting [4]) was under 0.01 µM throughout.

For `CO[C@@H]1CCCN(c2cncc(N3CC[C@@H](c4cc(C(=O)Nc5cccc(C(F)(F)F)c5)ccc4C)C3)c2)C1` [Example 36, 3-((S)-1-(5-((R)-3-methoxypiperidin-1-yl)pyridin-3-yl)pyrrolidin-3-yl)-4-methyl-N-(3-(trifluoromethyl)phenyl)benzamide], the values for the Ki in assay [1] (setting [3]) and in assay [2] (setting [4]) were under 0.01 µM and 0.025 to 0.06 µM, respectively.

As for `CNC(=O)c1cncc(N2CC[C@@H](c3cc(C(=O)Nc4cccc(C(F)(F)F)c4)ccc3C)C2)c1` [Example 26, (S)-N-methyl-5-(3-(2-methyl-5-((3-(trifluoromethyl)phenyl)carbamoyl)phenyl)pyrrolidin-1-yl)nicotinamide], the Ki in assay [1] (setting [3]) and in assay [2] (setting [4]) was under 0.01 µM each time.

As to `Cc1ccc(C(=O)Nc2cccc(C(F)(F)F)c2)cc1C1CCN(Cc2cccnc2)C1` (stereo not shown) [Compound C2, 4-methyl-3-(1-(pyridin-3-ylmethyl)pyrrolidin-3-yl)-N-(3-(trifluoromethyl)phenyl)benzamide, reference compound], the Ki was 0.571 µM in assay [1] (same binding assay, numeric values, read-out: DDR1 Ki) and 0.764 µM in assay [2] (same binding assay, numeric values, read-out: DDR2 Ki).

Turning to `CNC(=O)c1cc(N2CCC(c3cc(C(=O)Nc4cccc(C(F)(F)F)c4)ccc3C)C2)ccn1` (stereo not shown) [Example 1, N-methyl-4-(3-(2-methyl-5-((3-(trifluoromethyl)phenyl)carbamoyl)phenyl)pyrrolidin-1-yl)picolinamide], the Ki in assay [1] (setting [3]) and in assay [2] (setting [4]) was under 0.01 µM throughout.

Regarding `Cc1ccc(C(=O)Nc2cccc(C(F)(F)F)c2)cc1[C@@H]1CCN(c2cncc(N3CCC4(COC4)C3)c2)C1` [Example 39, (S)-3-(1-(5-(2-oxa-6-azaspiro[3.4]octan-6-yl)pyridin-3-yl)pyrrolidin-3-yl)-4-methyl-N-(3-(trifluoromethyl)phenyl)benzamide], the inhibitory constant (Ki) is 0.01 to 0.025 µM in assay [1] (setting [3]) and over 0.06 µM in assay [2] (setting [4]).

On to `CNC(=O)c1cc(N2CC[C@H](c3cc(C(=O)Nc4cccc(C(F)(F)F)c4)ccc3C)C2)ccn1` [Example 27, (R)-N-methyl-4-(3-(2-methyl-5-((3-(trifluoromethyl)phenyl)carbamoyl)phenyl)pyrrolidin-1-yl)picolinamide], for which the Ki in assay [1] (setting [3]) is under 0.01 µM; in assay [2] (setting [4]), 0.025 to 0.06 µM.

For `CNC(=O)c1cc(N2CC[C@@H](c3cc(C(=O)Nc4cccc(C(F)(F)F)c4)ccc3C)C2)ccn1` [Example 25, (S)-N-methyl-4-(3-(2-methyl-5-((3-(trifluoromethyl)phenyl)carbamoyl)phenyl)pyrrolidin-1-yl)picolinamide], the Ki in assay [1] (setting [3]) and in assay [2] (setting [4]) was under 0.01 µM in each case.

With `COc1cncc(N2CCC(c3cc(C(=O)Nc4cccc(C(F)(F)F)c4)ccc3C)C2)c1` (stereo not shown) [Example 3, 3-(1-(5-methoxypyridin-3-yl)pyrrolidin-3-yl)-4-methyl-N-(3-(trifluoromethyl)phenyl)benzamide], the Ki in assay [1] (setting [3]) and in assay [2] (setting [4]) was under 0.01 µM throughout.

Consider `Cc1ccc(C(=O)Nc2cccc(C(F)(F)F)c2)cc1C1CCN(c2cncc(C#N)c2)C1` (stereo not shown) [Example 4, 3-(1-(5-cyanopyridin-3-yl)pyrrolidin-3-yl)-4-methyl-N-(3-(trifluoromethyl)phenyl)benzamide], for which the results for the Ki in assay [1] (setting [3]) and in assay [2] (setting [4]) were 0.01 to 0.025 µM and 0.025 to 0.06 µM, respectively.

As for `Cc1ccc(C(=O)Nc2cccc(C(F)(F)F)c2)cc1C1CCN(c2cncc(OCCN3CCN(C)CC3)c2)C1` (stereo not shown) [Example 6, 4-methyl-3-(1-(5-(2-(4-methylpiperazin-1-yl)ethoxy)pyridin-3-yl)pyrrolidin-3-yl)-N-(3-(trifluoromethyl)phenyl)benzamide], the Ki in assay [1] (setting [3]) and in assay [2] (setting [4]) was under 0.01 µM throughout.

Consider `COCCNC(=O)c1cncc(N2CC[C@@H](c3cc(C(=O)Nc4cccc(C(F)(F)F)c4)ccc3C)C2)c1` [Example 35, (S)-N-(2-methoxyethyl)-5-(3-(2-methyl-5-((3-(trifluoromethyl)phenyl)carbamoyl)phenyl)pyrrolidin-1-yl)nicotinamide], for which the inhibition constant Ki in assay [1] (setting [3]) and in assay [2] (setting [4]) was under 0.01 µM each time.

Regarding `Cc1ccc(C(=O)Nc2cccc(C(F)(F)F)c2)cc1C1CCN(C(=O)c2cccnc2)C1` (stereo not shown) [Example 14, 4-methyl-3-(1-nicotinoylpyrrolidin-3-yl)-N-(3-(trifluoromethyl)phenyl)benzamide], the inhibition constant (Ki) in assay [1] (setting [3]) and in assay [2] (setting [4]) was under 0.01 µM each time.

Regarding `Cc1ccc(C(=O)Nc2cccc(C(F)(F)F)c2)cc1[C@H]1CCN(c2cccnc2)C1` [Example 15, (R)-4-methyl-3-(1-(pyridin-3-yl)pyrrolidin-3-yl)-N-(3-(trifluoromethyl)phenyl)benzamide], the Ki in assay [1] (setting [3]) was 0.01 to 0.025 µM; in assay [2] (setting [4]), 0.025 to 0.06 µM.

With `Cc1ccc(C(=O)Nc2cccc(C(F)(F)F)c2)cc1C1CCN(c2cncc(C(=O)NCCN(C)C)c2)C1` (stereo not shown) [Example 7, N-(2-(dimethylamino)ethyl)-5-(3-(2-methyl-5-((3-(trifluoromethyl)phenyl)carbamoyl)phenyl)pyrrolidin-1-yl)nicotinamide], the inhibitory constant (Ki) in assay [1] (setting [3]) and in assay [2] (setting [4]) was under 0.01 µM each time.

As to `CNC(=O)c1cncc(N2CCC(c3cc(C(=O)Nc4cccc(C(F)(F)F)c4)ccc3C)C2)c1` (stereo not shown) [Example 10, N-methyl-5-(3-(2-methyl-5-((3-(trifluoromethyl)phenyl)carbamoyl)phenyl)pyrrolidin-1-yl)nicotinamide], the Ki in assay [1] (setting [3]) is under 0.01 µM; in assay [2] (setting [4]), 0.01 to 0.025 µM.

With `Cc1ccc(C(=O)Nc2cccc(C(F)(F)F)c2)cc1[C@@H]1CCN(c2cnc(Nc3cnn(C)c3)nc2)C1` [Example 48, (S)-4-methyl-3-(1-(2-((1-methyl-1H-pyrazol-4-yl)amino)pyrimidin-5-yl)pyrrolidin-3-yl)-N-(3-(trifluoromethyl)phenyl)benzamide], the Ki in assay [1] (setting [3]) and in assay [2] (setting [4]) was under 0.01 µM each time.

The Ki is the equilibrium dissociation constant of an inhibitor or competing ligand from its target.
